“Also recorded” adds a separate entry of the source. Read-outs that look alike come from different tables or passages of the source.
Key:
FtsZ from Xcc = assay: Inhibition of GTPase activity, continuous substrate regeneration assay; assay type: biochemical, Xanthomonas citri subsp. citri; settings: compounds at MIC values, Xcc-FtsZ 5 μM, 400 μM GTP
Experimental: The cell division process is mediated by the formation of the Z ring, coordinated by GTP hydrolysis activity of FtsZ [33, 34, 35].
The evaluation of the inhibition of GTPase activity was measured by the characterization of the FtsZ from Xcc. This methodology is known as continuous assay of substrate regeneration and consists of the hydrolysis of guanosine triphosphate (GTP) in guanosine diphosphate (GDP) and inorganic phosphate. The GTP is regenerated by the enzyme pyruvate kinase which, in turn, converts the phosphoenol pyruvate (PEP) to pyruvate. The pyruvate produced by this reaction is reduced to lactate by lactate dehydrogenase, using NADH [64].
Reagent stocks were dispersed in Tris 50 buffer (1:1 tris:KCl at pH 7.9). We also prepared two mixtures: Mixture 1—magnesium chloride (MgCl2), pyruvate kinase/lactate dehydrogenase, phosphoenol-pyruvate, NADH and GTP, adding or not the test compounds to MIC values; and mixture 2—Xcc-FtsZ. The assay was performed in a 96-well plate, 75 μL of mixture 1 was pipetted into a well and incubated for 5 min at 30 °C; then 75 μL of mixture 2 was added and the readings started. A Biotek Synergy MX plate reader was used. The readings were performed every 5 s, at the wavelength of 340 nm at 30 °C, under constant stirring.
The total volume of 150 μL presented the following concentrations: 5 mM MgCl2; pyruvate kinase/lactate dehydrogenase 20 U mL^−1; 2 mM phosphoenol-pyruvate; 1 mM NADH; 400 μM GTP; Xcc-FtsZ 5 μM.

[1] = test system: HaCaT (human keratinocyte cell line); assay: Cytotoxicity MTT assay, HaCaT; assay type: cell-based
Experimental: (§1) This test is based on the reduction of 3-(4,5-dimethyl-2-thiazolyl)-2,5-diphenyl-2-tetrazole bromide by viable cells, with formation of violet insoluble formazan crystals. Five cell lines were used in order to evaluate the cytotoxic effect of the compounds as a whole.
(§2) The cytotoxicity of compounds 4, 16, 28 and copper oxychloride was determined by MTT assay. The cell lines used were HaCaT (human keratinocyte cell line—CLS 300493), Huh-7.5 (human hepatoma cell line—ATCC® PTA-8561), MRC-5 (human lung fibroblast cell line—ATCC CCL-171), VERO (monkey kidney epithelial cell line—ATCC® CCL81) and ACHN (human renal adenocarcinoma cell line—ATCC® CRL1611). The cells were cultured in appropriate medium recommended by the American Type Culture Collection.
(§3) The assay was performed with the concentration of 10^4 cells for both cell lines, distributed in 96-well plates and incubated at 37 °C in a 5% CO2 controlled atmosphere oven for 24 h. After the incubation period, the cells were treated with the compounds with a range of 1.56–200 μmol L^−1 and incubated for 24 h. The supernatant was removed, then 100 μL of 3-(4,5-dimethyl-2-thiazolyl)-2,5-diphenyl-2H-tetrazolium (MTT) salt at 1 mg mL^−1 diluted in DMEM medium (Gibco Life Technologies, Gaithersburg, MD, USA) was added and incubated for 30 min. Subsequently, the MTT was removed, then 100 μL of DMSO under agitation for 5 min at 60 rpm was added. The plates were read at 570 nm in a FLUOstar Omega/BMG LABTECH plate reader, Offenburg, BW, DE. We carried out the experiments in triplicate and three independent events for statistical analysis (GraphPad Software, San Diego, CA, USA). The MTT assay is based on the tetrazolium salt (yellow-colored) reduction to formazan (purple-colored) by metabolically active cells.

[2] = test system: Xcc cells membrane integrity; assay: Cellular membrane permeability of Xcc, Live/Dead BacLight kit; assay type: cell-based, Xanthomonas citri subsp. citri; settings: compounds at ¼ MIC, 15 min; nisin as positive control
Experimental: Membrane integrity was measured by using the commercial assay Live/Dead BacLight® bacterial viability kit (Invitrogen, Carlsbad, CA, USA). We observed cells with intact membrane in fluorescent blue (SYTO 9) and cells with disturbance or affected membrane integrity in red or pink (propidium iodide). The data analyses were plotted as the percentage of cells permeated by propidium iodide (Figure 2).
Phase contrast microscopy was used to observe changes in cell shape and signs of cell division alteration using an objective lens with a magnification of 100×. To evaluate the Xcc cells’ membrane integrity, the BacLight® kit was used. Mixtures of SYTO 9 dyes and propidium iodide (PI). SYTO 9 (blue) can stain nucleic acids in general—with intact or damaged membranes. On the other hand, PI (red) penetrates only the bacteria with damaged membranes, causing overlap in the fluorescence of SYTO 9. Therefore, using a mixture of the dyes, the bacteria with disturbed cell membranes are stained in fluorescent red and the intact cell membranes are stained in fluorescent blue. […] Cellular immobilization was performed on slides containing 1% agarose gel in 0.85% saline buffer. The slides were prepared with 1.0 mL of the agarose solution, which was dispersed in optical microscopy slides and on each slide another slide was placed so that the gel continued like a thin film and was of homogeneous height. The slides were dried at room temperature for approximately 20 min and opened at the time of use, when 10 μL of the cell suspension was deposited in the center and covered with the cover slip. The cells were visualized using the Olympus BX-61 optical microscope equipped with OrcaFlash 2.8 monochrome camera (Hamamatsu, Shizuoka, Japan). Cell Sensation software v11 (Olympus) was used to document and analyze the images.

[3] = test system: Xanthomonas citri subsp. citri; assay: Growth curve of Xcc (OD 600 nm); assay type: cell-based; settings: MIC and ½ MIC, 72 h
Experimental: According to the growth curves of the positive control (PC) and vehicle control (DMSO), it was observed that Xcc reaches the maximum growth phase in a period of 15 h. […] The early growth inhibition (lag phase), which happens in the first hours of contact (period of the first cellular divisions) can be a dynamic process. […] This can be explained because the compounds have bacteriostatic action; that is, as the time passes, the cells become able to recover and restart doubling. Another important finding is that the lag phase consists in the cell adaptation to the new medium conditions and the bacterial population is smaller in relation to the exponential phase facilitates the action of the compounds in the first hours (Figure 1).
An isolated colony of Xanthomonas citri subsp. citri was inoculated in NYG medium for 12 h at 29 °C. After this, the optical density (OD 600 nm) was measured and adjusted to ~0.1. […] Optical density reading was measured on a Synergy H1-BioTek plate reader every 30 min for 72 h. The growth curves were plotted with GraphPad Prism software. At the same time, the degradation assay was performed, solubilizing the compounds in DMSO, which were later incorporated in NYG medium. Later, we scanned the compounds to measure the absorbance values from 210 to 700 nm, and the maximum lambda value of each compound was selected after scanning. After that, punctual readings were carried out every 30 min for 72 h.

[4] = test system: Huh-7.5 (human hepatoma cell line); assay: Cytotoxicity MTT assay, Huh-7.5; assay type: cell-based
Experimental: as §1, §2, §3

[5] = Homo sapiens, HaCaT, 24 h, read-out: IC50 HaCaT, MTT, 24 h treatment
[6] = MTT, 24 h treatment, read-out: IC50 HaCaT
[7] = Homo sapiens, Huh7.5, 24 h, read-out: IC50 Huh-7,5, MTT, 24 h treatment
[8] = MTT, 24 h treatment, read-out: IC50 Huh-7,5

## CCCCCCCOC(=O)c1ccc(O)cc1O [Compound 4]
FtsZ from Xcc
  effect on GTPase activity of FtsZ: inhibition of FtsZ GTPase activity; also recorded: decay in the GTPase activity of FtsZ
[1]; [5]
  IC50: ~70 µM
[1]; [6]
  IC50: 64.9 ± 8.91 µM
[2]
  percentage of cells permeated by propidium iodide: 13.9%
[3]
  effect on Xcc growth curve: delay in the exponential phase
[4]; [7]
  IC50: ~70 µM
[4]; [8]
  IC50: 70.6 ± 5.52 µM

## CCCCCCCOC(=O)c1cc(O)ccc1O [Compound 16]
FtsZ from Xcc
  effect on GTPase activity of FtsZ: inhibition of FtsZ GTPase activity; also recorded: decay in the GTPase activity of FtsZ
[1]; [5]
  IC50: ~70 µM
[1]; [6]
  IC50: 69.8 ± 4.87 µM
[2]
  percentage of cells permeated by propidium iodide: 41.3%
[3]
  effect on Xcc growth curve: delay in the exponential phase
[4]; Homo sapiens, Huh7.5, 24 h, MTT, 24 h treatment, read-out: IC50 Huh-7,5
  IC50: 20.6 ± 0.23 µM

## CCCCCCCOC(=O)c1ccc(O)c(O)c1 [Compound 28]
FtsZ from Xcc
  effect on GTPase activity of FtsZ: inhibition of FtsZ GTPase activity; also recorded: decay in the GTPase activity of FtsZ
[1]; [5]
  IC50: ~70 µM
[1]; [6]
  IC50: 74 ± 11.7 µM
[2]
  percentage of cells permeated by propidium iodide: 93.8%
[3]
  effect on Xcc growth curve: delay in the exponential phase
[4]; [7]
  IC50: ~70 µM
[4]; [8]
  IC50: 64.8 ± 14.9 µM

From publication PMC6213047, “Design of Antibacterial Agents: Alkyl Dihydroxybenzoates against Xanthomonas citri subsp. citri” (International Journal of Molecular Sciences, 2018)
